Experimental data: US12030904B2 (priority 2020, dated 2024)
Like-named read-outs stand apart in the source and are kept apart here.

Experiments:
[1] = system: Recombinant Respiratory Syncytial virus strain A2 containing the firefly luciferase reporter (RSV-Fluc); test: microbe, parasite or virus in culture; format: cell-based; conditions: human respiratory syncytial virus, NHBE
SARS-CoV-2 = test: microbe, parasite or virus in culture; format: cell-based
MT4 cytotoxicity (CC50) = conditions: human, MT4 cells
[2] = 72 h, read-out: RSV-Fluc EC50 (NHBE), NHBE cells, three days, Table 2
[3] = Severe acute respiratory syndrome coronavirus 2, read-out: SARS EC50

SMILES | EC50 [1, 2] [nM] | EC50 ([1]; read-out: RSV EC50, Table 2a) [nM] | EC50 (SARS-CoV-2; [3]) [nM] | CC50 (MT4 cytotoxicity (CC50); MT4 CC50, Table 2a) [nM] | EC50 ([1]; read-out: RSV EC50, Table 4) [nM] | CC50 (MT4 cytotoxicity (CC50); MT4 CC50, Table 4) [nM] | EC50 ([1]; 72 h, read-out: RSV-Fluc EC50 (NHBE), NHBE cells, three days, Table 1) [nM] | EC50 (SARS-CoV-2; Severe acute respiratory syndrome coronavirus 2, 48 h, read-out: SARS-CoV-2 EC50) [nM] | CC50 (MT4 cytotoxicity (CC50); MT4 CC50, Table 1a) [nM]
CCCCCCCCCCCCCCCCOCCCCOP(=O)(O)OC[C@H]1O[C@@](C#N)(c2ccc3c(N)ncnn23)[C@H](O)[C@@H]1O [Example 25, ((2R,3S,4R,5R)-5-(4-aminopyrrolo[2,1-f][1,2,4]triazin-7-yl)-5-cyano-3,4-dihydroxytetrahydrofuran-2-yl)methyl (4-(hexadecyloxy)butyl) hydrogen phosphate] | 70 | 263 | 7460 | 48900 | – | – | – | – | –
CCCCCCCCCCCCCCCCCOC[C@H](COP(=O)(O)OC[C@H]1O[C@@](C#N)(c2ccc3c(N)ncnn23)[C@H](O)[C@@H]1O)OCc1ccc(OC)cc1 [Example 37, ((2R,3S,4R,5R)-5-(4-aminopyrrolo[2,1-f][1,2,4]triazin-7-yl)-5-cyano-3,4-dihydroxytetrahydrofuran-2-yl)methyl ((R)-3-(heptadecyloxy)-2-((4-methoxybenzyl)oxy)propyl) hydrogen phosphate] | – | 39 | 371 | 1580 | – | – | – | – | –
CCCCCCCCCCCCCCOC[C@H](COP(=O)(O)OC[C@H]1O[C@@](C#N)(c2ccc3c(N)ncnn23)[C@H](O)[C@@H]1O)OCc1cc(F)cc(C#N)c1 [Example 117, [(2R,3S,4R,5R)-5-(4-aminopyrrolo[2,1-f][1,2,4]triazin-7-yl)-5-cyano-3,4-dihydroxy-tetrahydrofuran-2-yl]methyl [(2R)-2-[(3-cyano-5-fluoro-phenyl)methoxy]-3-tetradecoxy-propyl] hydrogen phosphate] | – | – | 200 | – | 15 | 473 | – | – | –
CCCCCCCC/C=C/CCCCCCCCOC[C@H](COP(=O)(O)OC[C@H]1O[C@@](C#N)(c2ccc3c(N)ncnn23)[C@H](O)[C@@H]1O)OCc1cc(F)cc(C#N)c1 [Example 126, ((2R,3S,4R,5R)-5-(4-aminopyrrolo[2,1-f][1,2,4]triazin-7-yl)-5-cyano-3,4-dihydroxytetrahydrofuran-2-yl)methyl ((R)-2-((3-cyano-5-fluorobenzyl)oxy)-3-(((E)-octadec-9-en-1-yl)oxy)propyl) hydrogen phosphate] | – | – | 140 | – | 30 | 366 | – | – | –
CCCCCCCCCCCCCCCCCCOC[C@H](COP(=O)(O)OC[C@H]1O[C@@](C#N)(c2ccc3c(N)ncnn23)[C@H](O)[C@@H]1O)OCc1ccc(Cl)c(Cl)c1 [Example 48, ((2R,3S,4R,5R)-5-(4-aminopyrrolo[2,1-f][1,2,4]triazin-7-yl)-5-cyano-3,4-dihydroxytetrahydrofuran-2-yl)methyl ((R)-2-((3,4-dichlorobenzyl)oxy)-3-(octadecyloxy)propyl) hydrogen phosphate] | 78 | 78 | 10000 | 1610 | – | – | – | – | –
CCCCCCCCCCCCCCCCCCOC[C@H](COP(=O)(O)OC[C@H]1O[C@@](C#N)(c2ccc3c(N)ncnn23)[C@H](O)[C@@H]1O)OCc1ccc(OC)c(C#N)c1 [Example 115, [(2R,3S,4R,5R)-5-(4-Aminopyrrolo[2,1-f][1,2,4]triazin-7-yl)-5-cyano-3,4-dihydroxy-tetrahydrofuran-2-yl]methyl [(2R)-2-[(3-cyano-4-methoxy-phenyl)methoxy]-3-octadecoxy-propyl] hydrogen phosphate] | – | – | 390 | – | 166 | 1460 | – | – | –
CCCCCCCCCCCCCCCCCCOC[C@H](COP(=O)(O)OC[C@H]1O[C@@](C#N)(c2ccc3c(N)ncnn23)[C@H](O)[C@@H]1O)Oc1ccc(C#N)nc1 [Example 78, ((2R,3S,4R,5R)-5-(4-aminopyrrolo[2,1-f][1,2,4]triazin-7-yl)-5-cyano-3,4-dihydroxytetrahydrofuran-2-yl)methyl ((R)-2-((6-cyanopyridin-3-yl)oxy)-3-(octadecyloxy)propyl) hydrogen phosphate] | – | – | 33 | – | 7 | 133 | – | – | –
CCCCCCCCCCCCCCCCCOC[C@H](COP(=O)(O)OC[C@H]1O[C@@](C#N)(c2ccc3c(N)ncnn23)[C@H](O)[C@@H]1O)OCc1cc(F)cc(C#N)c1 [Example 35, ((2R,3S,4R,5R)-5-(4-aminopyrrolo[2,1-f][1,2,4]triazin-7-yl)-5-cyano-3,4-dihydroxytetrahydrofuran-2-yl)methyl ((R)-2-((3-cyano-5-fluorobenzyl)oxy)-3-(heptadecyloxy)propyl) hydrogen phosphate] | – | 40 | 112 | 425 | – | – | – | – | –
CCCCCCCCCCCCCCCCCOC[C@H](COP(=O)(O)OC[C@H]1O[C@@](C#N)(c2ccc3c(N)ncnn23)[C@H](O)[C@@H]1O)OCc1ccccc1 [Example 6, ((2R,3S,4R,5R)-5-(4-aminopyrrolo[2,1-f][1,2,4]triazin-7-yl)-5-cyano-3,4-dihydroxytetrahydrofuran-2-yl)methyl ((R)-2-(benzyloxy)-3-(heptadecyloxy)propyl) hydrogen phosphate] | – | – | – | – | – | – | 80 | 950 | 4150
CCCCCCCCCCCCCCCCOC[C@H](COP(=O)(O)OC[C@H]1O[C@@](C#N)(c2ccc3c(N)ncnn23)[C@H](O)[C@@H]1O)OCCCCCCCCCCCCCCCC [Example 61, ((2R,3S,4R,5R)-5-(4-Aminopyrrolo[2,1-f][1,2,4]triazin-7-yl)-5-cyano-3,4-dihydroxytetrahydrofuran-2-yl)methyl ((R)-2,3-bis(hexadecyloxy)propyl) hydrogen phosphate] | 4500 | 4540 | 10000 | 50000 | – | – | – | – | –
CCCCCCCCCCCCCCCCCCOC[C@H](COP(=O)(O)OC[C@H]1O[C@@](C#N)(c2ccc3c(N)ncnn23)[C@H](O)[C@@H]1O)OCc1ccc2c(c1)CCC2 [Example 52, ((2R,3S,4R,5R)-5-(4-aminopyrrolo[2,1-f][1,2,4]triazin-7-yl)-5-cyano-3,4-dihydroxytetrahydrofuran-2-yl)methyl ((R)-2-((2,3-dihydro-1H-inden-5-yl)methoxy)-3-(octadecyloxy)propyl) hydrogen phosphate] | – | 125 | 487 | 17900 | – | – | – | – | –
CCCCCCCCCCCCCCOCCCCOP(=O)(O)OC[C@H]1O[C@@](C#N)(c2ccc3c(N)ncnn23)[C@H](O)[C@@H]1O [Example 120, [(2R,3S,4R,5R)-5-(4-Aminopyrrolo[2,1-f][1,2,4]triazin-7-yl)-5-cyano-3,4-dihydroxy-tetrahydrofuran-2-yl]methyl 4-tetradecoxybutyl hydrogen phosphate] | – | – | 10000 | – | 224 | 12100 | – | – | –
CCCCCCCCCCCCCCCCCCOC[C@H](COP(=O)(O)OC[C@H]1O[C@@](C#N)(c2ccc3c(N)ncnn23)[C@H](O)[C@@H]1O)Oc1ccc(C#N)nn1 [Example 80, ((2R,3S,4R,5R)-5-(4-aminopyrrolo[2,1-f][1,2,4]triazin-7-yl)-5-cyano-3,4-dihydroxytetrahydrofuran-2-yl)methyl ((R)-2-((6-cyanopyridazin-3-yl)oxy)-3-(octadecyloxy)propyl) hydrogen phosphate] | – | – | 54 | – | 13 | 344 | – | – | –
CCCCCCCC/C=C\CCCCCCCCOC[C@H](COP(=O)(O)OC[C@H]1O[C@@](C#N)(c2ccc3c(N)ncnn23)[C@H](O)[C@@H]1O)OCc1ccccc1 [Example 130, ((2R,3S,4R,5R)-5-(4-aminopyrrolo[2,1-f][1,2,4]triazin-7-yl)-5-cyano-3,4-dihydroxytetrahydrofuran-2-yl)methyl ((R)-2-(benzyloxy)-3-(((Z)-octadec-9-en-1-yl)oxy)propyl) hydrogen phosphate] | – | – | 110 | – | 39 | 3560 | – | – | –
CCCCCCCCCCCCCCCCOC[C@H](COP(=O)(O)OC[C@H]1O[C@@](C#N)(c2ccc3c(N)ncnn23)[C@H](O)[C@@H]1O)OCc1ccc(OC)cc1 [Example 97, ((2R,3S,4R,5R)-5-(4-aminopyrrolo[2,1-f][1,2,4]triazin-7-yl)-5-cyano-3,4-dihydroxytetrahydrofuran-2-yl)methyl ((R)-3-(hexadecyloxy)-2-((4-methoxybenzyl)oxy)propyl) hydrogen phosphate] | – | – | 99 | – | 40 | 652 | – | – | –
CCCCCCCCCCCCCCCCCCOC[C@H](COP(=O)(O)OC[C@H]1O[C@@](C#N)(c2ccc3c(N)ncnn23)[C@H](O)[C@@H]1O)OCc1ccc(Cl)cc1 [Example 41, ((2R,3S,4R,5R)-5-(4-aminopyrrolo[2,1-f][1,2,4]triazin-7-yl)-5-cyano-3,4-dihydroxytetrahydrofuran-2-yl)methyl ((R)-2-((4-chlorobenzyl)oxy)-3-(octadecyloxy)propyl) hydrogen phosphate] | 52 | 52 | 174 | 2410 | – | – | – | – | –
CCCCCCCCCCCCCCCCOCCCOP(=O)(O)OC[C@H]1O[C@@](C#N)(c2ccc3c(N)ncnn23)[C@H](O)[C@@H]1O [Example 60, ((2R,3S,4R,5R)-5-(4-Aminopyrrolo[2,1-f][1,2,4]triazin-7-yl)-5-cyano-3,4-dihydroxytetrahydrofuran-2-yl)methyl (3-(hexadecyloxy)propyl) hydrogen phosphate] | 73 | 73 | 6950 | 25800 | – | – | – | – | –
CCCCCCCCCCOCCCOP(=O)(O)OC[C@H]1O[C@@](C#N)(c2ccc3c(N)ncnn23)[C@H](O)[C@@H]1O [Example 56, ((2R,3S,4R,5R)-5-(4-Aminopyrrolo[2,1-f][1,2,4]triazin-7-yl)-5-cyano-3,4-dihydroxytetrahydrofuran-2-yl)methyl (3-(decyloxy)propyl) hydrogen phosphate] | 5000 | 5000 | 10000 | 50000 | – | – | – | – | –
